Values after ≈ are worked out from the molar mass of the structure shown. Like-named read-outs stand apart in the source and are kept apart here.
Assay: Solubility
Type: physicochemical
Details: read-out: Solubilité
Text: Chromatographie sur plaque : • - support : gel de silice 60 F 254 Merck • - solvant : chloroforme - méthanol - ammoniaque 80/18/2 • - révélation : iode • - Rf : 0,65 Solubilité : soluble à 5 % dans l'eau.
Chromatographie sur plaque : • - support : gel de silice 60 F 254 Merck • - solvant : chloroforme - méthanol - ammoniaque 80/18/2 • - révélation : iode • - Rf : 0,6 Solubilité : soluble à 1 % dans l'eau.
Chromatographie sur plaque : • - support : gel de silice 60 F 254 Merck • - solvant : chloroforme - méthanol - ammoniaque 80/18/2 • - révélation : Réactif de Dragendorf et iode • - Rf : 0,65 Solubilité : soluble à 2 % dans une solution aqueuse d'acide chlorhydrique (0,1 N) et à 1 % dans le propylène glycol.

solubility (propylene glycol, organic solvent or mixture, dans le propylène glycol) [mg/mL] | Structure (SMILES) | solubility (water, dans l'eau) [mg/mL] | solubility (0.1 n aqueous hydrochloric acid, dans une solution aqueuse d'acide chlorhydrique (0,1 N)) [mg/mL]
– | CCCCOCC(O)CNC(C)C (stereo not shown) [Exemple 1, isopropylamino-3 butoxy-1 propanol-2] | 50 (≈ 264 mM) | –
– | CCCCOCC(O)CNC(C)(C)C (stereo not shown) [Exemple 2, tertiobutylamino-3 butoxy-1 propanol-2] | 10 (≈ 49.2 mM) | –
10 (≈ 36.8 mM) | CC(C)=CCCC(C)CCOCC(O)CNC(C)C (stereo not shown) [Exemple 3, isopropylamino-3 (diméthyl-3,7 octène-6 yloxy)-1 propanol-2] | – | 20 (≈ 73.7 mM)
